Measurements: ChEMBL document CHEMBL3600385 (Bioorg Med Chem Lett, 2015)
The source made the active and inactive calls. The rule behind the calls is not given here.

Legend:
[1] = target: Neuronal acetylcholine receptor subunit alpha-7 (Rattus norvegicus) (UniProt Q05941); assay: Agonist activity at rat alpha-7 nicotinic acetylcholine receptor expressed in Xenopus oocytes assessed as ratio of maximum response to compound to that induced by 1 mM acetylcholine at 1 mM treated for 3 to 4 secs followed by compound washout for 4 mins by two-electrode voltage-clamp electrophysiology assay; type: cell-based
[2] = target: T1, Neuronal acetylcholine receptor subunit alpha-7 (Rattus norvegicus, UniProt Q05941); assay: (§1) Antagonist activity at rat alpha-7 nicotinic acetylcholine receptor expressed in Xenopus oocytes assessed as inhibition of acetylcholine-induced currents preincubated for 10 mins followed by nicotine induction by two-electrode voltage-clamp electrophysiology assay; type: cell-based
[3] = target: Neuronal acetylcholine receptor subunit alpha-7 (Rattus norvegicus) (UniProt Q05941); assay: as §1, with “of nicotine-induced current amplitudes at IC50 for” for “of”, “assay relative to control” for “assay”; type: cell-based
[4] = target: Neuronal acetylcholine receptor subunit alpha-7 (Rattus norvegicus) (UniProt Q05941)
[5] = target: T1, Neuronal acetylcholine receptor subunit alpha-7

T1 sequence (Q05941 whole entry): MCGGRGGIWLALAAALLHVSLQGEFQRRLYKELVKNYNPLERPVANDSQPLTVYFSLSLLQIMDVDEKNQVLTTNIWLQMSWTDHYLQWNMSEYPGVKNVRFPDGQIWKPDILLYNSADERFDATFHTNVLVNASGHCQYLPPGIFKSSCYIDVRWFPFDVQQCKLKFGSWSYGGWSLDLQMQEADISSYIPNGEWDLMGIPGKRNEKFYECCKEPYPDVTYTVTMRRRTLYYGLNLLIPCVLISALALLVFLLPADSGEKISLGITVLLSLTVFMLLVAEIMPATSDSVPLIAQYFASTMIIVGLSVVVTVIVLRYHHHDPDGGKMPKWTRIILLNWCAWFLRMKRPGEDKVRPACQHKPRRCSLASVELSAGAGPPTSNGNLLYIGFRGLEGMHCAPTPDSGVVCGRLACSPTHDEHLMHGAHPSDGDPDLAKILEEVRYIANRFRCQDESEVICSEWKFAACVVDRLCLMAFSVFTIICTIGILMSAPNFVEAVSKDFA
Sequence of Neuronal acetylcholine receptor subunit alpha-7 (Rattus norvegicus) (Q05941 whole entry): as above

Row | SMILES | Ratio [1] | IC50 [2] [µM] | inhibition [3] [%] | pEC50 [4] | EC50 [5] [µM]
1 | COc1cc(N)c(Cl)cc1C(=O)NC1CN2CCC1CC2 (stereo not drawn) [ZACOPRIDE] | 0.038 | 7.04 | 4.37 |  | 
2 | O=C(N[C@@H]1C[N+]2(CCl)CCC1CC2)c1ccccc1F |  | 39.3 | 33.2 | inactive | 
3 | O=C(N[C@H]1C[N+]2(CCl)CCC1CC2)c1ccccc1F | 0.021 | 28.4 | 65.7 |  | 
4 | O=C(NC1CN2CCC1CC2)c1ccccc1F (stereo not drawn) | 0.19 | 8.07 | 26.5 |  | 56.5
